Values of other authors, collected in US10881127B1, “Manufacturing method of water-solubilized solution of mastic resin” (VENN SKINCARE, INC., priority 2019, dated 2021).

Details: in room temperature or in water

O=C1O[C@H]([C@@H](O)CO)C(O)=C1O [L-ascorbic acid]
stability of L-ascorbic acid: easily oxidized and broken
